Experimental data published in ChEMBL document CHEMBL1909046, “DrugMatrix in vitro pharmacology data”.

How the values were obtained:
[1] = biological target: Beta-2 adrenergic receptor (Homo sapiens, UniProt P07550); assay: DRUGMATRIX: Adrenergic beta2 radioligand binding (ligand: [3H] CGP-12177); type: cell membranes, Membrane; conditions: cho; Not Active = under 50% inhibition at 10 µM
D(1A) dopamine receptor = D(1A) dopamine receptor (Homo sapiens, UniProt P21728); assay: DRUGMATRIX: Dopamine D1 radioligand binding (ligand: [3H] SCH-23390); type: cell membranes, CHO, Membrane; conditions: cho; Not Active = under 50% inhibition at 10 µM
[2] = DRUGMATRIX: Calcium Channel Type L, Phenylalkylamine radioligand binding (ligand: [3H] (-)-Desmethoxyverapamil (D-888)); type: cell membranes, Rattus norvegicus, Wistar, Brain, Membrane; conditions: Not Active = under 50% inhibition at 10 µM
[3] = DRUGMATRIX: Sodium/nucleoside co-transporter radioligand binding (ligand: nitrobenzylthioinosine); type: cell membranes, Cavia porcellus, Dunkin-Hartley, Cerebral cortex, Membrane; conditions: Not Active = under 50% inhibition at 10 µM
[4] = biological target: T1, Polyunsaturated fatty acid lipoxygenase ALOX15 (Oryctolagus cuniculus, UniProt P12530); assay: biochemical; type: tissue-based, Reticulocytes; conditions: reticulocytes;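 note: inhibition of 15-lipoxygenase enzyme activity measured with linoleic acid as the substrate; in other assays of this panel Not Active means under 50% inhibition at 10 µM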
T1 sequence (P12530 whole entry): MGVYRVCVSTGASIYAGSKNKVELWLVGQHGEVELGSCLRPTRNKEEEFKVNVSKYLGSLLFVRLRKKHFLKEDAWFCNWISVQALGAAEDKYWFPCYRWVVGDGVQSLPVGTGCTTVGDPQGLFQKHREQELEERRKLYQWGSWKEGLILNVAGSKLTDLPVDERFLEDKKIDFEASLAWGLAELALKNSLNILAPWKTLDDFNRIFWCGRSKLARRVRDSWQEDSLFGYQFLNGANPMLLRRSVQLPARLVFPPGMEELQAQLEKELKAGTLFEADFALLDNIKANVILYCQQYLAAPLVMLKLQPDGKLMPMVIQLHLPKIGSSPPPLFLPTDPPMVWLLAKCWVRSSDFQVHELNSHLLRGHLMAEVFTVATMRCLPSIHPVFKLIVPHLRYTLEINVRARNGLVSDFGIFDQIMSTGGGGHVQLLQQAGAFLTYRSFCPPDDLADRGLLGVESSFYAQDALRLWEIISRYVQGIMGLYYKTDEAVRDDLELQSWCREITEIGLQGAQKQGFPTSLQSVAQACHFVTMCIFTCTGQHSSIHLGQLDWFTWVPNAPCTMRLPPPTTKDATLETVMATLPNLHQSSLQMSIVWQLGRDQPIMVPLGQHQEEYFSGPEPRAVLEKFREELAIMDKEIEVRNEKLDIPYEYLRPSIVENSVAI

[5] = biological target: cGMP-specific 3',5'-cyclic phosphodiesterase (Homo sapiens, UniProt O76074); assay: DRUGMATRIX: Phosphodiesterase PDE5 enzyme inhibition (substrate: [3H]cGMP + cGMP); type: tissue-based, Platelet; conditions: platelet; Not Active = under 50% inhibition at 10 µM
Adenosine receptor A2a = Adenosine receptor A2a (Homo sapiens, UniProt P29274); assay: DRUGMATRIX: Adenosine A2A radioligand binding (ligand: […]); type: cell membranes, HEK293, Membrane; conditions: hek293; Not Active = under 50% inhibition at 10 µM
[6] = biological target: T2, Alpha-2A adrenergic receptor (Homo sapiens, UniProt P08913); type: cell membranes, Sf9, Membrane; conditions: sf9; note: in other assays of this panel Not Active means under 50% inhibition at 10 µM
T2 sequence (P08913 whole entry): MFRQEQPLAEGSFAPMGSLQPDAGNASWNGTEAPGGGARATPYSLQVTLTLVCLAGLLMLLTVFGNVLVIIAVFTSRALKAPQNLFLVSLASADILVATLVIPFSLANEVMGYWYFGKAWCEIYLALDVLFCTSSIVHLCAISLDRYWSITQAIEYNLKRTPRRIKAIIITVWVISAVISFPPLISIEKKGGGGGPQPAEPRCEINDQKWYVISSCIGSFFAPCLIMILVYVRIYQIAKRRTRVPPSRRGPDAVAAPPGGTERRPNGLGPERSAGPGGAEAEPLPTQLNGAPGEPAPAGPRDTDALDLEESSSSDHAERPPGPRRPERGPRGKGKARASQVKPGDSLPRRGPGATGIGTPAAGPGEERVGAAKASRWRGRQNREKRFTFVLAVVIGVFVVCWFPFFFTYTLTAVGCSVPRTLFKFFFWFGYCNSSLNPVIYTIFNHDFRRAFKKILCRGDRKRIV

[7] = biological target: Kappa-type opioid receptor (Homo sapiens, UniProt P41145); assay: DRUGMATRIX: Opiate kappa (OP2, KOP) radioligand binding (ligand: [3H] Diprenorphine); type: cell membranes, HEK293, Membrane; conditions: hek293; Not Active = under 50% inhibition at 10 µM
[8] = biological target: T3, Muscarinic acetylcholine receptor M4 (Homo sapiens, UniProt P08173); type: cell membranes, CHO-K1, Membrane; conditions: cho-k1; note: in other assays of this panel Not Active means under 50% inhibition at 10 µM
T3 sequence (P08173 whole entry): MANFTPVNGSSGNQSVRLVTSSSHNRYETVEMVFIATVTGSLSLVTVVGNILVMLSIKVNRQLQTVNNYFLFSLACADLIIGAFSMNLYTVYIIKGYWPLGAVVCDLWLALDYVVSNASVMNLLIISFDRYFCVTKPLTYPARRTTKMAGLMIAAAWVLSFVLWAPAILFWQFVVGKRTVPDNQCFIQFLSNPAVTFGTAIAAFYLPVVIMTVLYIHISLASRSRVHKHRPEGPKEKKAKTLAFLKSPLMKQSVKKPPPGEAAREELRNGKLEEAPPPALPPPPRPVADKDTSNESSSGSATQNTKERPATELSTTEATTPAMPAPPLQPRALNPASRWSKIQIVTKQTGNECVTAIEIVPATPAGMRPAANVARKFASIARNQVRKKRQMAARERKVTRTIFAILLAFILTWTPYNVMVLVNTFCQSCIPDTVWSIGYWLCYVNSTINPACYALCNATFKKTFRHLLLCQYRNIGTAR

[9] = biological target: Beta-1 adrenergic receptor (Homo sapiens, UniProt P08588); assay: DRUGMATRIX: Adrenergic beta1 radioligand binding (ligand: [125I] Cyanopindolol); type: cell membranes, CHO-K1, Membrane; conditions: cho-k1; Not Active = under 50% inhibition at 10 µM
Neutrophil elastase = biological target: T4, Neutrophil elastase (Homo sapiens, UniProt P08246); type: tissue-based;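 note: inhibition of neutrophil elastase enzyme activity, measured with a p-nitroanilide-linked peptide substrate; in other assays of this panel Not Active means under 50% inhibition at 10 µM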
T4 sequence (P08246 whole entry): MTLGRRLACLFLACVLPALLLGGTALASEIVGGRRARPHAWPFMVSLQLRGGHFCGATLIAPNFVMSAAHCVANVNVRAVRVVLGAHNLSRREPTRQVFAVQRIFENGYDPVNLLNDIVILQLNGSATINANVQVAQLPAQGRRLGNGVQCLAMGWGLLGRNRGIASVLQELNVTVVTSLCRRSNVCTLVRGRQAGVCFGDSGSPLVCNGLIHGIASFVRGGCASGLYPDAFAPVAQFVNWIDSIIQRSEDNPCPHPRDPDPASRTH

Kappa-type opioid receptor, sequence (P41145 whole entry): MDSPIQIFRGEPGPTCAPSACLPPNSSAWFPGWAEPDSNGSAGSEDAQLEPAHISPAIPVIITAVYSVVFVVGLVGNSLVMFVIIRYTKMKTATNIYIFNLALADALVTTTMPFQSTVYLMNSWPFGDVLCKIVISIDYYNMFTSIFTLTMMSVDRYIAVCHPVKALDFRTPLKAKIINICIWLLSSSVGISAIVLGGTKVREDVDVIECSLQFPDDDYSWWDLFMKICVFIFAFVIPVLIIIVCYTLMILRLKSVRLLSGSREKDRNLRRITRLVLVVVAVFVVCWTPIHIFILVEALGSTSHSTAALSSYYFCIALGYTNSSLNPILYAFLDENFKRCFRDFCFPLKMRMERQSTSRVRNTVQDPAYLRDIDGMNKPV
Beta-2 adrenergic receptor, sequence (P07550 whole entry): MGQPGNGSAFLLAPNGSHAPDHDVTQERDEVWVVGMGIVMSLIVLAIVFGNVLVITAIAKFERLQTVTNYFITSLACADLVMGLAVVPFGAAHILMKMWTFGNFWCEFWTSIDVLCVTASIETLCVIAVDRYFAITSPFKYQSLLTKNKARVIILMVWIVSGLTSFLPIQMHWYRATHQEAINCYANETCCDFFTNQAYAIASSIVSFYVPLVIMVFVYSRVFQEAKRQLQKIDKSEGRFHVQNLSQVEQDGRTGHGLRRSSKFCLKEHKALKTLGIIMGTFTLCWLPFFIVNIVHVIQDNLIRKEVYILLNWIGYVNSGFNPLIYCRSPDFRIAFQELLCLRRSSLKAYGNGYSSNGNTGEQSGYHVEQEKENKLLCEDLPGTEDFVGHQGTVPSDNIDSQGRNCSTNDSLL
Beta-1 adrenergic receptor, sequence (P08588 whole entry): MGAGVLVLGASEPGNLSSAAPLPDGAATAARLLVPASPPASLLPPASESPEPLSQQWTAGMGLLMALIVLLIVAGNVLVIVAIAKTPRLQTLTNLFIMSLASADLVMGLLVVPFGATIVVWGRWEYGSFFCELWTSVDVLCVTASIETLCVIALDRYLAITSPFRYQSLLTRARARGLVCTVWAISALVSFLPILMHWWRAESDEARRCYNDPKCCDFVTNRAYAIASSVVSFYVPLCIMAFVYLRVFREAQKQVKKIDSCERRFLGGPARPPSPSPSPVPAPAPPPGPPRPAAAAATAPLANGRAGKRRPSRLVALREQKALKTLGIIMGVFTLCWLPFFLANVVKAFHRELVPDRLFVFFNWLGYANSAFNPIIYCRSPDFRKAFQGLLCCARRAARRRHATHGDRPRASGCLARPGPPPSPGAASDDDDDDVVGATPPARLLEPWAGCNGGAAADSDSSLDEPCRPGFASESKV
Adenosine receptor A2a, sequence (P29274 whole entry): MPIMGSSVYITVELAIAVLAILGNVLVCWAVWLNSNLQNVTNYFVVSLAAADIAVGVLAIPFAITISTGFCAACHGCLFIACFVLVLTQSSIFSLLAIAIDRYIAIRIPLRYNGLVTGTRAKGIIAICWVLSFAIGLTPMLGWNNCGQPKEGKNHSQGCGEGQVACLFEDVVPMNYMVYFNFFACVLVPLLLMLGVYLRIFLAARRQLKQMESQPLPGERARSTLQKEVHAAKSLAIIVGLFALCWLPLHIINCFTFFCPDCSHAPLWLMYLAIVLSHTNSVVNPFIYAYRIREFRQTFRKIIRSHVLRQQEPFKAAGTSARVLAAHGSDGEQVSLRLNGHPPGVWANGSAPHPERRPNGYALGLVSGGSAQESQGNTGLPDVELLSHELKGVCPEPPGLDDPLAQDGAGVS
D(1A) dopamine receptor, sequence (P21728 whole entry): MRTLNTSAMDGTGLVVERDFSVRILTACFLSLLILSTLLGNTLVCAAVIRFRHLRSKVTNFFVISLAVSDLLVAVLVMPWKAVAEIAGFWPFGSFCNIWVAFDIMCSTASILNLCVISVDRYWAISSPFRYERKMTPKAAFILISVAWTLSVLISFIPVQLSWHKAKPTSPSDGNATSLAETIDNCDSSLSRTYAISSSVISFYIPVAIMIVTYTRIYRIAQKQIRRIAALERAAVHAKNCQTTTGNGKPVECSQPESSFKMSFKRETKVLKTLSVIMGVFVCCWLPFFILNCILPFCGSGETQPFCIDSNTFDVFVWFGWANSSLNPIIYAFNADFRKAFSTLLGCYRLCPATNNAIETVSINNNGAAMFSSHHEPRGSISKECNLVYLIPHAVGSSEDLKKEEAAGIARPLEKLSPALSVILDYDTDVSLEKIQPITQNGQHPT

CN(N=O)C(=O)N[C@@H](C=O)[C@@H](O)[C@H](O)[C@H](O)CO [STREPTOZOCIN]
Not Active: IC50 [1] | IC50 (D(1A) dopamine receptor) | IC50 [2] | Ki [2] | IC50 [3] | Ki [3] | IC50 [4] | IC50 [5] | IC50 (Adenosine receptor A2a) | IC50 [6] | IC50 [7] | IC50 [8] | IC50 [9] | IC50 (Neutrophil elastase)

Cc1cc(NS(=O)(=O)c2ccc(N)cc2)no1 [SULFAMETHOXAZOLE]
Not Active: IC50 [1] | IC50 (D(1A) dopamine receptor) | IC50 [2] | Ki [2] | IC50 [3] | Ki [3] | IC50 [4] | IC50 [5] | IC50 (Adenosine receptor A2a) | IC50 [6] | IC50 [7] | IC50 [8] | IC50 [9] | IC50 (Neutrophil elastase)

Nc1ccc(S(N)(=O)=O)cc1 [SULFANILAMIDE]
Not Active: IC50 [1] | IC50 (D(1A) dopamine receptor) | IC50 [2] | Ki [2] | IC50 [3] | Ki [3] | IC50 [4] | IC50 [5] | IC50 (Adenosine receptor A2a) | IC50 [6] | IC50 [7] | IC50 [8] | IC50 [9] | IC50 (Neutrophil elastase)

Nc1ccc(S(=O)(=O)Nc2ccnn2-c2ccccc2)cc1 [SULFAPHENAZOLE]
Not Active: IC50 [1] | IC50 (D(1A) dopamine receptor) | IC50 [2] | Ki [2] | IC50 [3] | Ki [3] | IC50 [4] | IC50 [5] | IC50 (Adenosine receptor A2a) | IC50 [6] | IC50 [7] | IC50 [8] | IC50 [9] | IC50 (Neutrophil elastase)

C=CC[C@@H]1/C=C(\C)C[C@H](C)C[C@H](OC)[C@H]2O[C@@](O)(C(=O)C(=O)N3CCCC[C@H]3C(=O)O[C@H](/C(C)=C/[C@@H]3CC[C@@H](O)[C@H](OC)C3)[C@H](C)[C@@H](O)CC1=O)[C@H](C)C[C@@H]2OC [TACROLIMUS ANHYDROUS]
Not Active: IC50 [1] | IC50 (D(1A) dopamine receptor) | IC50 [2] | Ki [2] | IC50 [3] | Ki [3] | IC50 [4] | IC50 [5] | IC50 (Adenosine receptor A2a) | IC50 [6] | IC50 [7] | IC50 [8] | IC50 [9] | IC50 (Neutrophil elastase)

CC1CN(c2cc3c(cc2F)c(=O)c(C(=O)O)cn3-c2ccc(F)cc2F)CCN1 (configuration not stated) [TEMAFLOXACIN]
Not Active: IC50 [1] | IC50 (D(1A) dopamine receptor) | IC50 [2] | Ki [2] | IC50 [3] | Ki [3] | IC50 [4] | IC50 [5] | IC50 (Adenosine receptor A2a) | IC50 [6] | IC50 [7] | IC50 [8] | IC50 [9] | IC50 (Neutrophil elastase)

CN(C)[C@@H]1C(O)=C(C(N)=O)C(=O)[C@@]2(O)C(O)=C3C(=O)c4c(O)cccc4[C@@](C)(O)[C@H]3C[C@@H]12 [TETRACYCLINE]
Not Active: IC50 [1] | IC50 (D(1A) dopamine receptor) | IC50 [2] | Ki [2] | IC50 [3] | Ki [3] | IC50 [4] | IC50 [5] | IC50 (Adenosine receptor A2a) | IC50 [6] | IC50 [7] | IC50 [8] | IC50 [9] | IC50 (Neutrophil elastase)

c1ccc2[nH]c(-c3cscn3)nc2c1 [THIABENDAZOLE]
Not Active: IC50 [1] | IC50 (D(1A) dopamine receptor) | IC50 [2] | Ki [2] | IC50 [3] | Ki [3] | IC50 [4] | IC50 [5] | IC50 (Adenosine receptor A2a) | IC50 [6] | IC50 [7] | IC50 [8] | IC50 [9] | IC50 (Neutrophil elastase)
